Data taken from patent publication US20160194359A1, “CELL-REACTIVE, LONG-ACTING, OR TARGETED COMPSTATIN ANALOGS AND RELATED COMPOSITIONS AND METHODS” (APELLIS PHARMACEUTICALS, INC., priority 2012, published 2016).

What was measured:
[1] = test system: complement activation (alternative pathway); conditions: WO2004/026328; cited from earlier work
[2] = test system: RBCs from a patient with PNH; experiment: modified Ham's test with flow cytometry for CD59 and C3d (Example 18); format: cell-based, human; conditions: for % C′3 (Type I) / % C′3 (Type II) / % C′3 (Type III): cells positive for C3 loading
Protocol: A modified Ham's test was performed to assess the ability of compstatin analogs to protect PNH RBCs from complement-mediated lysis. […] Exposure to heat inactivated human serum was used as a control representing no significant complement-mediated lysis as complement is inactivated by heat. Exposure to acidified human serum and magnesium (Mg^2+) in the absence of complement inhibitors (pane labeled Mg^2+) was used as a control representing maximum lysis.
Following incubation, cells were stained with antibodies to CD59 and C3d. Cd59 level permitted the classification of the PNH RBCs as Type I, Type II, or Type III. Staining for C3d, a product of C3 activation and cleavage was used as a marker of C3 and C3 activation product deposition (loading). Flow cytometric analysis was performed to assess CD59 and C3d on RBC surfaces and to quantify the percentages of Type I, Type II, and Type III cells present in various samples.
Type I cells (shown in orange in FIG. 12) have normal levels of CD59. Type III cells (shown in blue in FIG. 12) have essentially no detectable CD59. […] Type II cells (shown in purple in FIG. 12) have reduced levels of CD59 as compared with normal or Type I cells and have an intermediate sensitivity to complement-mediated lysis. […] Reduction in or absence of lysis may be evidenced by increased levels of C3 or C3 activation products on Type II cells, as is evident by comparing the level of C3d on Type II cells in the no lysis panel with the level of C3d on Type II cells in the max. lysis panel in both FIGS. 12(A) and 12(B). […] A shift in the relative percentages of Type I, II, and III cells from the percentages present in the max. lysis control panels (Mg^2+) towards the percentages present in the no lysis control panels (heat inactivated serum) is indicative of protection against complement-mediated lysis. The column labeled % C′3 in Table 11 refers to the percentage of cells deemed “positive” for presence of C3 and C3 activation products (“C3 loading”).

PNH RBCs = experiment: modified Ham's assay, comparison with Soliris (Example 19); format: cell-based, human; conditions: CA28-2GS-BF at 50 ug/ml
Protocol: Flow cytometry was performed after antibody staining using antibodies against CD59 and C3d. In this figure, quadrant 1 (Q1) and quadrant 3 (Q3) represent Type III cells. Quadrant 2 (Q2) and quadrant 4 (Q4) represent Types I and II cells. Q1 and Q2 represent cells with a significant and abnormally high amount of C3 activation product (e.g., C3d) deposition.

[3] = test system: complement activation via the classical pathway; experiment: classical complement inhibition assay (C3b deposition ELISA); format: biochemical, Human
Protocol: Inhibitory activity of the synthesized compounds was assessed by measuring the effect of the compounds on complement activation via the classical pathway using a standard complement inhibition assay. The protocol measures C3b deposition in an ELISA format. C3b deposition monitored using this method is generated through complement activated by the classical pathway. Briefly, 96-well plates are coated with BSA. Human plasma, chicken ovalbumin (OVA), polyclonal anti-OVA antibodies and compound being tested (referred to as “drug”) are added and incubated, followed by addition of Anti-human C3 HRP-conjugated antibody. After an additional incubation, substrate is added and signal detected. Details of the protocol are as follows:
Protocol for Classical Complement Inhibition Assay
• Ninety-six well plate (polystyrene plate, Thermo Scientific, 9205) • Chicken OVA (Sigma A5503-5G) • Rabbit anti-chicken OVA (Abcam ab1221) • Blocking buffer (Startingblock buffer, Thermo Scientific 37538) • Veronal Buffer (5× concentration, Lonza 12-624E) • Human plasma (collected with Lepirudin at 50 ug/ml final concentration) • Goat anti-human C3 HRP-conjugated Ab (MP Biomedicals, 55237) • Tween-20 Wash Buffer (0.05% Tween 20-PBS buffer) • TMB (Peroxidase substrate, BD 555214)—1:1 mixture of BD 51-2607KC and 51-2606KC. • 1M H2SO4
• 1. […] Read the plate at 450 nm
Data was analyzed using GraphPad Prism5 software. […]

[4] = biological target: T1, complement component C3 (human) (human, UniProt P01024 23-1663); experiment: cell-based or functional assay
[5] = biological target: T1, complement component C3 (human); experiment: cell-based or functional assay; remark: listed apart in the source
[6] = biological target: T1, complement component C3 (human); experiment: cell-based or functional assay; remark: listed apart in the source

CC[C@H](C)[C@H](N)C(=O)N[C@H]1CSSC[C@@H](C(=O)N[C@H](C(N)=O)[C@@H](C)O)NC(=O)[C@H](CCCN=C(N)N)NC(=O)[C@H](Cc2cnc[nH]2)NC(=O)[C@H](Cc2cnc[nH]2)NC(=O)CNC(=O)[C@H](Cc2c[nH]c3ccccc23)NC(=O)[C@H](CC(=O)O)NC(=O)[C@H](CCC(N)=O)NC(=O)[C@H](C(C)C)NC(=O)[C@H](C(C)C)NC1=O [Compstatin]
IC50 [1]: 12000 nM

CA28-2GS-BF: two CA28-AEEAc-Lys moieties coupled to bifunctional linear 40 kD PEG, NHS-OCO(CH2)3COO-PEG-CO(CH2)3COO-NHS
C3 loading on PNH red cells ([2]; at 100 micrograms/ml compound or higher concentrations): virtually no C3 loading | Type III % ([2]; compound at 20 micrograms/ml): 19.19% | % C′3 (Type I) ([2]; compound at 20 micrograms/ml): 2.18% | % C′3 (Type II) ([2]; compound at 20 micrograms/ml): 12.28% | % C′3 (Type III) ([2]; compound at 20 micrograms/ml): 0.99% | % C′3 (Type I) ([2]; compound at 40 micrograms/ml): 2.84% | % C′3 (Type III) ([2]; compound at 40 micrograms/ml): 1.21% | Type III % ([2]; compound at 50 micrograms/ml): 13.87% | % C′3 (Type I) ([2]; compound at 50 micrograms/ml): 2.28% | % C′3 (Type III) ([2]; compound at 50 micrograms/ml): 1.29% | % C′3 (Type I) ([2]; compound at 60 micrograms/ml): 2.05% | % C′3 (Type II) ([2]; compound at 60 micrograms/ml): 13.04% | % C′3 (Type III) ([2]; compound at 60 micrograms/ml): 1.44% | Type II % ([2]; compound at 100 micrograms/ml): 53.93% | % C′3 (Type I) ([2]; compound at 100 micrograms/ml): 0.07% | % C′3 (Type II) ([2]; compound at 100 micrograms/ml): 0.88% | % C′3 (Type III) ([2]; compound at 100 micrograms/ml): 0.11% | Type II % ([2]; compound at 200 micrograms/ml): 51.99% | % C′3 (Type I) ([2]; compound at 200 micrograms/ml): 0.02% | % C′3 (Type II) ([2]; compound at 200 micrograms/ml): 0.26% | % C′3 (Type III) ([2]; compound at 200 micrograms/ml): 0.02% | Type II % ([2]; compound at 500 micrograms/ml): 51.87% | Type III % ([2]; compound at 500 micrograms/ml): 37.87% | % C′3 (Type I) ([2]; compound at 500 micrograms/ml): 0.04% | % C′3 (Type II) ([2]; compound at 500 micrograms/ml): 0.3% | % C′3 (Type III) ([2]; compound at 500 micrograms/ml): 0.05% | Q1 # Events (PNH RBCs; Q1 = Type III cells with abnormally high C3d deposition): 23 | Q3 # Events (PNH RBCs; Q3 = Type III cells without significant C3d deposition): 153,187 | Q4 # Events (PNH RBCs; Q4 = Types I and II cells without significant C3d deposition): 95,713 | deposition of C3d / C3 activation products on PNH RBCs (PNH RBCs; activated complement): essentially no deposition of C3d | activity per compstatin analog (peptide) moiety compared with CA28 [3]: less than the activity of an individual CA28 molecule | complement inhibiting activity compared with CA28 on a molar basis [3]: virtually identical

B1: CA28-2TS-BF (bifunctionalized PEG-based compstatin analog, TS type) (peptide)
peptide: ICVWQDWGAHRCTK
modifications: N-terminal acetyl; 1-methyl-tryptophan at position 4; disulfide Cys2-Cys12; AEEAc linker after Thr13; Lys side chain coupled through a carbamate to one end of a bifunctional linear 40 kD PEG (TS type); C-terminal amide
IC50 (read off the curve); alternative pathway complement activation (LPS-coated plate, C3b deposition ELISA, human plasma) [B] [4]: ~400 nM

B2: (CA28-AEEAc)8-PEG40k (peptide)
peptide: ICVWQDWGAHRCTK
modifications: N-terminal acetyl; 1-methyl-tryptophan at position 4; disulfide Cys2-Cys12; AEEAc linker after Thr13; Lys side chain coupled to one arm of an eight-arm 40 kD PEG (NOF HGEO-400GS); C-terminal amide
IC50, classical complement inhibition assay (C3b deposition ELISA), as a function of CA28 concentration [5]: 1930 nM | IC50 on a molar basis, classical complement inhibition assay [6]: ~260 nM
